# Reference: publication PMC12785453, “Oral Fluid Concentrations and Pharmacological Effects of Clephedrone and Methylone in Humans” (International Journal of Molecular Sciences, 2025)
# Test system: healthy male participants
# Assay: Subjective effects, ARCI short form, methylone trial
# Assay type: in vivo, humans
# Conditions: 150 or 200 mg oral
# Description: Methylone pharmacology was evaluated in a study designed as a randomized, double-blind, placebo-controlled, crossover clinical trial. Four pilot studies were conducted administering methylone at oral doses of 50 (n = 3), 100 (n = 6), 150 (n = 5), and 200 mg (n = 7). Participants attended 3 experimental sessions separated by a one-week wash-out period and received two doses of methylone (one dose per experimental session) compared to placebo, except in the last pilot study in which participants received one dose of methylone, compared to MDMA and placebo. However, in this manuscript, only the results corresponding to the highest methylone doses (n = 12; 150 and 200 mg; mean dose = 179.2 mg) are presented, to enable comparison with clephedrone self-administration. Participants were recruited by word of mouth in the volunteer database of the clinical pharmacology unit.
# Methylone hydrochloride of high purity in powder form was acquired from LGC Standards (Teddington, UK) for the controlled study. The Pharmacy Department of the Hospital Universitari Germans Trias i Pujol was responsible for manufacturing, storing, and dispensing identical and opaque soft gelatin capsules containing 50 mg of methylone or a placebo (maltodextrin). Treatment consisted of 5 capsules that combined methylone and/or a placebo to reach the target dose. Details can be found in the previous article.
# Subjective effects were evaluated with visual analog scales (VAS), the short form of the Addiction Research Center Inventory (ARCI), and the Evaluation of Subjective Effects of Substances with Abuse Potential questionnaire (VESSPA-SSE). In addition, the Sensitivity to Drug Reinforcement Questionnaire (SDRQ) and a pharmacological identification class questionnaire were used in the controlled study administering methylone.
# The validated ARCI 49-item short form was used to evaluate and discriminate the subjective following five subscales that correspond to different classes of drugs of abuse: pentobarbital-chlorpromazine-alcohol group (PCAG) is susceptible to sedative effects, morphine-benzedrine group (MBG) is susceptible to euphoric effects, lysergic acid diethylamide (LSD) is susceptible to dysphoria and somatic symptoms, benzedrine (BG) is susceptible to intellectual efficiency and energy, and amphetamine (A) is susceptible to amphetamine-like effects.
# Participants included in the naturalistic clephedrone study completed VAS at baseline, 0.50, 1, 1.5, 2, 3, 4, and 5 h, and ARCI and VESSPA at baseline, 1, 2, 3, 4, and 5 h after self-administering clephedrone. In the controlled study, VAS was performed at baseline and 0.25, 0.50, 0.75, 1, 1.5, 2, 3, 4, 6, 8, 10, and 24 h, and ARCI and VESSPA at baseline and 1, 2, 3, 4, 6, 8, and 10 h after administering methylone. Participants completed SDRQ and VAS sexual desire and arousal at baseline, 1 and 10 h, and the pharmacological class identification questionnaire at 8 h.
# For statistical analysis, values of physiological (SBP, DBP, HR, and T) and subjective effects (VAS, ARCI, and VESSPA-SSE) were baseline–adjusted. Maximum effects (Emax) and the time needed to reach maximum effects (Tmax) were determined, and the area under the curve up to 5 h (AUC0–5h) for clephedrone and up to 6 h (AUC0–6h) for methylone was calculated using the trapezoidal rule. Emax and AUC values are presented as mean ± standard deviation, whereas Tmax is presented in median (range).
# To find possible significant changes through the time course compared to baseline, a Dunnett multiple comparison test was carried out to compare each time point with baseline in both drug conditions. For clephedrone the comparisons were 0–0.5 h, 0–1 h, 0–1.5 h, 0–2 h, 0–3 h, 0–4 h and 0–5 h, and for methylone this analysis included 0–0.25 h, 0–0.5 h, 0–0.75 h, 0–1 h, 0–1.5 h, 0–2 h, 0–3 h, 0–4 h and 0–6 h. Given their different study designs, no comparative analysis between the time courses of both synthetic cathinones was conducted.
smiles,measurement,setting,value
"CNC(C)C(=O)c1ccc2c(c1)OCO2 (centres unmarked) [Methylone, 3,4-methylenedioxy-N-methylcathinone]",Tmax of effects collected using ARCI,,1 h
same,ARCI A (amphetamine-like effects) Emax,n=12,2.92 ± 1.73 points
same,ARCI BG (intellectual efficiency) Emax,n=12,1.50 ± 1.09 points
same,ARCI LSD (dysphoria) Emax,n=12,–0.25 ± 1.29 points
same,ARCI MBG (euphoria) Emax,n=12,5.92 ± 4.68 points
same,ARCI PCAG (sedation) Emax,n=12,2.17 ± 3.49 points
same,ARCI A (amphetamine-like effects) AUC0-5/6 h,"AUC0–6h, n=12",4.33 ± 2.77 points·h
same,ARCI BG (intellectual efficiency) AUC0-5/6 h,"AUC0–6h, n=12",0.83 ± 1.81 points·h
same,ARCI LSD (dysphoria) AUC0-5/6 h,"AUC0–6h, n=12",–0.96 ± 1.81 points·h
same,ARCI MBG (euphoria) AUC0-5/6 h,"AUC0–6h, n=12",8.25 ± 6.89 points·h
same,ARCI PCAG (sedation) AUC0-5/6 h,"AUC0–6h, n=12",5.46 ± 8.86 points·h
